Data: patent publication US20120225905A1, “BEPOTASTINE COMPOSITIONS” (Mitsubishi Tanabe Pharma Corporation, priority 2010, published 2012)

Test: Clinical Example 1: pharmacokinetic assessments
Format: in vivo, human
Details: plasma, noncompartmental PK analysis
Protocol: At Visit 3 (a minimum of 3 days after Visit 2), a subset of approximately 35 subjects who qualified at Visit 2 were randomized and began PK blood draws in the clinic that occurred over 24 hours for placebo, 2%, 4%, or 6% dosages of bepotastine besilate (using a randomization ratio of 1:1:1:1). There were approximately nine subjects in each of the four treatment groups. Blood sampling for PK assessments was drawn within 90 minutes (pre-dose). Subjects were dosed and additional blood samples were collected at 10, 20, 30, and 45 minutes post-dose and at 1, 1.25, 2, 3, 4, 6, 10, and 12 hours post-dose while remaining in the clinic. Subjects returned the next day for a 24 hour post-dose PK blood draw. PK blood draws at 1, 1.25, 2, 3, 4, 6, 10, and 12 hours post-dose were within a ±1 minute window and at 24 hours post dose were within a ±60 minute window.
All subjects who qualified at Visit 2 returned to the clinic for Visit 4 following a minimum ten day washout period. At Visit 4, subjects recorded individual nasal and ocular symptoms on 0-3 unit scales prior to entering the EEC and every 30 minutes for the first two hours while in the EEC, including just prior to dosing. […] At the end of Visit 4, subjects recorded reflective nasal symptom scores, summarizing their subjective opinion of each nasal and ocular symptom score (same 0-3 unit scales), over the entire post-dosing period in the EEC. […]

O=C(O)CCCN1CCC(O[C@@H](c2ccc(Cl)cc2)c2ccccn2)CC1 [bepotastine, (+)-(S)-4-[4-[(4-chlorophenyl)(2-pyridyl)methoxy]piperidino]butyric acid]
absorption from the nasal sprays: absorbed quickly
half-life: short
